Experimental data published in ChEMBL document CHEMBL4610006, “Tetrahydroquinoline units in flexible heteroarotinoids (Flex-Hets) convey anti-cancer properties in A2780 ovarian cancer cells” (Bioorg Med Chem, 2020).

Experiments:
A2780 [1] = assay: Antiproliferative activity against human A2780 cells assessed as cell growth inhibition measured after 72 hrs by CellTiter 96 non-radioactive cell proliferation assay; format: functional, cell-based; conditions: A2780, 72 h
[2] = molecular target: T1, Stress-70 protein, mitochondrial (Homo sapiens, UniProt P38646); assay: Binding affinity to mortalin substrate binding domain (unknown origin)
T1 sequence (P38646 whole entry, the tested form may be a part): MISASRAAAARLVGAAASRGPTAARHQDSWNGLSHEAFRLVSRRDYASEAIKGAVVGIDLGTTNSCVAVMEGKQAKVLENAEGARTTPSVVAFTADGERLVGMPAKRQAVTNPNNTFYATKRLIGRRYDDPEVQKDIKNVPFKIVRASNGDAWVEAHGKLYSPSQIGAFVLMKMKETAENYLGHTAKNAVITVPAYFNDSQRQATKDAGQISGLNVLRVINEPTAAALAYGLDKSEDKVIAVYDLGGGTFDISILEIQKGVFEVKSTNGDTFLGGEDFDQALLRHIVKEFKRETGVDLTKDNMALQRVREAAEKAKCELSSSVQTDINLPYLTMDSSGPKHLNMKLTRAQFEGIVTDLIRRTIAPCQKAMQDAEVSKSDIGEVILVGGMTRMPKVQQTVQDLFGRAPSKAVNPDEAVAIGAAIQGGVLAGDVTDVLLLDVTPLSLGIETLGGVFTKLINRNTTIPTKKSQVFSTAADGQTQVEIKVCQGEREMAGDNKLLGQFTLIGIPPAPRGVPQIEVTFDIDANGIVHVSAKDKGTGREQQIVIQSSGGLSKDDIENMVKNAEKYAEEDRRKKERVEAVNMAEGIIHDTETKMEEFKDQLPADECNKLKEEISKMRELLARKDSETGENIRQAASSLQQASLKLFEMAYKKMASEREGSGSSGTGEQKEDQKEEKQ

[3] = molecular target: T1, Stress-70 protein, mitochondrial
Description: Binding affinity to mortalin substrate binding domain (unknown origin) assessed as change in Gibbs free energy

A2780 [4] = assay: Antiproliferative activity against human A2780 cells assessed as cell growth inhibition at 2 to 8 uM measured after 72 hrs by CellTiter 96 non-radioactive cell proliferation assay relative to control; format: functional

SMILES | IC50 (A2780 [1]) [µM] | Kd [2] [µM] | deltaG [3] [kcal/mol] | Efficacy (A2780 [4]) [%]
CC1(C)CCNc2ccc(NC(=O)Nc3ccc([N+](=O)[O-])cc3)cc21 | 6.9 | 1.1 | -8.2 | –
CN1c2ccc(NC(=O)Nc3ccc([N+](=O)[O-])cc3)cc2C(C)(C)C(=O)C1(C)C | 3.8 | 0.3 | -8.9 | –
CC1(C)CCNc2ccc(NC(=S)Nc3ccc(OC(F)(F)F)cc3)cc21 | 7.1 | 5.4 | -7.2 | –
CN1c2ccc(NC(=S)Nc3ccc(OC(F)(F)F)cc3)cc2C(C)(C)C(=O)C1(C)C | 5.4 | 2.4 | -7.7 | –
CN1c2ccc(NC(=S)Nc3ccc([N+](=O)[O-])cc3)cc2C(C)(C)C(=O)C1(C)C | 4.4 | 1.1 | -8.2 | –
CC1(C)CC(C)(C)c2cc(NC(=S)Nc3ccc([N+](=O)[O-])cc3)ccc2S1 [SHETA-2] | – | 0.6 | -8.5 | –
CN1c2ccc(NC(=O)Nc3ccc(C(F)(F)F)cc3)cc2C(C)(C)C(O)C1(C)C (configuration not stated) | 6.7 | 0.7 | -8.4 | –
CN1c2ccc(NC(=S)Nc3ccc([N+](=O)[O-])cc3)cc2C(C)(C)CC1(C)C | 4.5 | 0.5 | -8.7 | –
CN1c2ccc(NC(=O)Nc3ccc(N)cc3)cc2C(C)(C)C(=O)C1(C)C | 7.7 | 1.1 | -8.2 | –
CN1c2ccc(NC(=O)Nc3ccc(C(F)(F)F)cc3)cc2C(C)(C)C(=O)C1(C)C | 2.58 | 1.5 | -8 | –
CN1c2ccc(NC(=O)Nc3ccc(OC(F)(F)F)cc3)cc2C(C)(C)C(=O)C1(C)C | 2.4 | 1.8 | -7.9 | –
CN1c2ccc(NC(=O)Nc3ccc(OC(F)(F)F)cc3)cc2C(C)(C)C(O)C1(C)C (configuration not stated) | 7.8 | 1.1 | -8.2 | –
CN1c2ccc(NC(=S)Nc3ccc([N+](=O)[O-])cc3)cc2C(C)(C)C(O)C1(C)C (configuration not stated) | 10 | – | – | 25
CC1(C)CCNc2ccc(NC(=S)Nc3ccc([N+](=O)[O-])cc3)cc21 | 7.1 | 1.6 | -7.9 | –
CC1(C)CCNc2ccc(NC(=S)Nc3ccc(C(F)(F)F)cc3)cc21 | 6 | 3.3 | -7.5 | –
CN1c2ccc(NC(=S)Nc3ccc(C(F)(F)F)cc3)cc2C(C)(C)C(=O)C1(C)C | 3.9 | – | – | 90.8
CN1c2ccc(NC(=S)Nc3ccc(OC(F)(F)F)cc3)cc2C(C)(C)C(O)C1(C)C (configuration not stated) | 13.1 | 2.9 | -7.6 | –
CN1c2ccc(NC(=S)Nc3ccc(C(F)(F)F)cc3)cc2C(C)(C)C(O)C1(C)C (configuration not stated) | 7.6 | 2.3 | -7.7 | –
CC1(C)CC[N+](C)(C)c2ccc(NC(=O)Nc3ccc([N+](=O)[O-])cc3)cc21 | 6.6 | 0.7 | -8.5 | –
CN1c2ccc(NC(=O)Nc3ccc([N+](=O)[O-])cc3)cc2C(C)(C)C(O)C1(C)C (configuration not stated) | 8.4 | 1.6 | -8 | –
